According to paper PMC6095690, “Coalescing beneficial host and deleterious antiparasitic actions as an antischistosomal strategy” (eLife, 2018):
Read-outs that look alike come from different tables or passages of the source.

Tests used:
Sm.5HTRL [1] = target: T1, Sm.5HTRL (Schistosoma mansoni, UniProt A0A173FEI8)
[2] = tested on: parental HEK293 cell line expressing the GloSensor 22F cAMP sensor and lacking Sm.5HTRL; experiment: counter-screen of agonist hits: basal cAMP luminescence in parental reporter line; type: cell-based
[3] = tested on: adult S. mansoni parasites; experiment: adult worm movement assay ex vivo; design: species or system Schistosoma mansoni; details: for IC50 / EC50: Schistosoma mansoni, ± 95% confidence interval; for IC50: read-out: IC50 for inhibition of 5-HT evoked movement, 5-HT 200 µM; for EC50: read-out: EC50 for stimulation of adult schistosome movement
Sm.5HTRL [4] = target: T1, Sm.5HTRL; experiment: cell-based; details: for fold induction at 10 µM: HEK293, read-out: Sm.5HTRL agonism (fold change luminescence)
[5] = tested on: S. mansoni (mature infection in Swiss Webster mice); experiment: hepatic shift assay in infected mice; details: intraperitoneal, sacrificed three hours later; dose not given
Sj.5HTR = Sj.5HTR (Schistosoma japonicum, UniProt A0A346LTY2); experiment: cell-based
[6] = tested on: adult S. mansoni male and female pairs; experiment: egg laying assay of worm pairs cultured ex vivo; details: 100 µM, five days
immature S. mansoni = experiment: movement of immature worms harvested 4 weeks post infection, ex vivo; design: species or system Schistosoma mansoni; details: male worms 4 weeks post infection
Excerpt: Figure 6. […] Figure 6—figure supplement 1. […] Scale = 50 µm. [drawing 7]

Sh.5HTR = Sh.5HTR (Schistosoma haematobium, UniProt A0A922S615); type: cell-based; details: receptor transiently transfected into stable HEK293 cAMP reporter line; read-out: EC50 of cAMP luminescence response
[7] = agonist hit counter screen, cells lacking Sm.5HTRL
[8] = primary screen, compound 10 µM then 5-HT 1 µM, 384 well, single replicate

T1 sequence (A0A173FEI8 1-547): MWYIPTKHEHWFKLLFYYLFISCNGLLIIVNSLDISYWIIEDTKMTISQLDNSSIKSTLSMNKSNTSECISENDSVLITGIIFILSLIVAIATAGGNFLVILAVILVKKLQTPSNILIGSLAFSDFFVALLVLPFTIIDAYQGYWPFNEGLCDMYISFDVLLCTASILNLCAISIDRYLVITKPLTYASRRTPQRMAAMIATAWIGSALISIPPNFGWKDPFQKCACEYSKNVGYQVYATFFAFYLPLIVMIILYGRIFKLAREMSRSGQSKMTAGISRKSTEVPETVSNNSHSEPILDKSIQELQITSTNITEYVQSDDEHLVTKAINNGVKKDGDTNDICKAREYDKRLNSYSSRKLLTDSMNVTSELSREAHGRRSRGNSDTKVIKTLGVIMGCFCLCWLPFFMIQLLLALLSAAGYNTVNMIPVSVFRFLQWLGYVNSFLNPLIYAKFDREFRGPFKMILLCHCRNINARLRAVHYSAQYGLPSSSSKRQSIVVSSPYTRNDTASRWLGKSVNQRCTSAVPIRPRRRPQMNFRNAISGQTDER
Chain of Sj.5HTR (A0A346LTY2 entry or part of it): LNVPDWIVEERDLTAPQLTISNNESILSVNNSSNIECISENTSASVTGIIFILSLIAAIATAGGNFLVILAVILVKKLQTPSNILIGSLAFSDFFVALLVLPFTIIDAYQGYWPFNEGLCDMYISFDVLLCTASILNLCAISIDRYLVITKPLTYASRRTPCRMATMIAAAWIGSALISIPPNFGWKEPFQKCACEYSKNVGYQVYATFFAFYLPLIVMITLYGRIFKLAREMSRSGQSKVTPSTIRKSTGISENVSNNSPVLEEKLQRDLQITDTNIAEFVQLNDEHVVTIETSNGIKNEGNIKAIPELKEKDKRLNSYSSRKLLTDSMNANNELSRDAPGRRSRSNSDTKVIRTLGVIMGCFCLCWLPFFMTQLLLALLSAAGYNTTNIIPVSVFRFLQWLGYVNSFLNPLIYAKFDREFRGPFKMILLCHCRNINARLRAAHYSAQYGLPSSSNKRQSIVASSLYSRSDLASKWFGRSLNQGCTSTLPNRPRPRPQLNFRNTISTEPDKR

## NCCc1c[nH]c2cccc(OC(=O)c3ccc(C(=O)O)cc3)c12 [ST070282]
Sm.5HTRL [1]; hek293 cells
  (+) Sm.5HTRL fold change: 12.6864 fold change
[2]; [7]
  (-)Sm.5HTRL fold change: 1.366 fold change

## CC(C)C[C@H]1C(=O)N2CCC[C@H]2[C@]2(O)O[C@](NC(=O)[C@@H]3C=C4c5cccc6[nH]c(Br)c(c56)C[C@H]4N(C)C3)(C(C)C)C(=O)N12 [bromocriptine, Bromocriptine]
[3]; ex vivo
  IC50: 331 ± 271 nM
[3]; preincubation 1 µM, Figure 4B
  5-HT (200 µM) stimulation of worm movement after preincubation with antagonist: 5-HT stimulation was not observed
Sm.5HTRL [1]
  type of activity at schistosome 5-HTRs: antagonists
Sm.5HTRL [4]
  IC50: 1600 ± 400 nM
[5]
  percentage of worms in the liver: 2.0 ± 2.8%

## Cl.NCCc1c[nH]c2ccc(Br)cc12 [ST093597]
Sm.5HTRL [1]; hek293 cells
  (+) Sm.5HTRL fold change: 15.2823 fold change
[2]
  (-)Sm.5HTRL fold change: 1.1795 fold change

## COc1cc(C(=O)NCCOc2ccccc2C)cc(OC)c1OC [ST005872]
Sm.5HTRL [1]; agonist hit validation
  (+) Sm.5HTRL fold change: 10.4008 fold change
[2]; [7]
  (-)Sm.5HTRL fold change: 0.7305 fold change

## CNCC(O)c1ccc(O)cc1 (stereo not drawn) [ST095769]
Sm.5HTRL [1]; agonist hit validation
  (+) Sm.5HTRL fold change: 11.737 fold change
[2]; [7]
  (-)Sm.5HTRL fold change: 2.535 fold change

## Cc1ccc2[nH]c(CCN)cc2c1.Cl [ST070930]
Sm.5HTRL [1]; agonist hit validation
  (+) Sm.5HTRL fold change: 17.0489 fold change
[2]; [7]
  (-)Sm.5HTRL fold change: 1.1 fold change

## CN1C[C@H](C(=O)N[C@]2(C)O[C@@]3(O)[C@@H]4CCCN4C(=O)[C@H](Cc4ccccc4)N3C2=O)C[C@@H]2c3cccc4[nH]cc(c34)C[C@H]21.CS(=O)(=O)O [ST056346]
Sm.5HTRL [1]
  (+) Sm.5HTRL fold change: 94.3413 fold change
[2]; [7]
  (-)Sm.5HTRL fold change: 1.4 fold change

## CNC[C@H](O)c1ccc(O)c(O)c1 [ST069368]
Sm.5HTRL [1]; agonist hit validation
  (+) Sm.5HTRL fold change: 60.6229 fold change
[2]; [7]
  (-)Sm.5HTRL fold change: 94.1 fold change

## CCN(CC)C(=O)N[C@H]1C[C@@H]2c3cccc4[nH]cc(c34)C[C@H]2N(C)C1 [terguride, Terguride, reference compound]
Sm.5HTRL [1]
  type of activity at schistosome 5-HTRs: antagonists
Sm.5HTRL [4]
  IC50: 400 ± 50 nM

## Nc1ncnc2c1ncn2[C@@H]1O[C@H](COP(=O)(O)OP(=O)(O)O)[C@@H](O)[C@H]1O [ST057097]
Sm.5HTRL [1]; agonist hit validation
  (+) Sm.5HTRL fold change: 11.9433 fold change
[2]; [7]
  (-)Sm.5HTRL fold change: 1.0 fold change

## CC1=CC(=O)c2c(O)cccc2C1=O [ST069355]
Sm.5HTRL [1]
  (+) Sm.5HTR 5-HT response (% of DMSO): 0.03935 % of DMSO

## C=C[C@]1(C)C=C2CC[C@@H]3[C@](C)(CCC[C@@]3(C)C(=O)O)[C@H]2CC1 [compound 6435]
Sm.5HTRL [1]; agonist hit validation
  (+) Sm.5HTRL fold change: 200.129 fold change
[2]; [7]
  (-)Sm.5HTRL fold change: 0.9901 fold change

## COc1cc2c(c(OC)c1OC)-c1ccc(OC)c(=O)cc1[C@@H](NC(C)=O)CC2 [compound 757]
Sm.5HTRL [1]
  Sm.5HTRL agonism (fold change luminescence): 1.502 fold change luminescence
  Sm.5HTRL antagonism (% of control 5-HT response): 1.228 % of control 5-HT response

## CNC[C@@H](O)c1ccc(O)c(O)c1 [compound 62786]
Sm.5HTRL [1]; agonist hit validation
  (+) Sm.5HTRL fold change: 230.23 fold change
[2]; [7]
  (-)Sm.5HTRL fold change: 88.8519 fold change

## C[C@@H](CO)NC(=O)[C@@H]1C=C2c3cccc4[nH]cc(c34)C[C@H]2N(C)C1 [ST057158]
Sm.5HTRL [1]
  (+) Sm.5HTRL fold change: 15.5169 fold change
[2]; [7]
  (-)Sm.5HTRL fold change: 1.1 fold change

## CC(C)C[C@H]1C(=O)N2CCC[C@H]2[C@]2(O)O[C@](NC(=O)[C@@H]3C=C4c5cccc6[nH]cc(c56)C[C@H]4N(C)C3)(C(C)C)C(=O)N12 [α-ergocryptine, reference compound]
Sm.5HTRL [1]
  type of activity at schistosome 5-HTRs: inactive

## CCN(CC)C(=O)[C@@H]1C=C2c3cccc4[nH]c(Br)c(c34)C[C@H]2N(C)C1 [BOL-148, 2-Bromo-LSD]
[3]; ex vivo
  IC50: 28.8 ± 23.1 nM
[3]; inhibition of 5-HT evoked movement
  potency relative to bromocriptine: ~ 10 fold
Sm.5HTRL [1]
  type of activity at schistosome 5-HTRs: antagonists
Sm.5HTRL [4]
  IC50: 100 ± 20 nM
[5]
  percentage of worms in the liver: 5.2 ± 2.3%

## CCN(CC)C(=O)[C@@H]1C=C2c3cccc4[nH]cc(c34)C[C@H]2N(C)C1 [LSD, reference compound]
[3]; ex vivo
  EC50: 1400 ± 500 nM
Sm.5HTRL [1]
  type of activity at schistosome 5-HTRs: partial agonist

## CC(C)NCC(O)c1ccc(O)c(O)c1 (stereo not drawn) [ST077771]
Sm.5HTRL [1]; agonist hit validation
  (+) Sm.5HTRL fold change: 12.8429 fold change
[2]; [7]
  (-)Sm.5HTRL fold change: 15.0437 fold change

## CN1CC(C(=O)NC2(C)OC3(O)C4CCCN4C(=O)C(Cc4ccccc4)N3C2=O)C=C2c3cccc4[nH]cc(c34)CC21.O=C(O)C(O)C(O)C(=O)O (stereo not drawn) [ST072185]
Sm.5HTRL [1]
  (+) Sm.5HTRL fold change: 29.8904 fold change
[2]
  (-)Sm.5HTRL fold change: 1.0 fold change

## NCCc1c[nH]c2ccc(O)cc12 [5-HT, serotonin]
[3]; ex vivo
  EC50: 51600 ± 3000 nM
[3]; ex vivo, 5-HT at 200 µM
  effect on adult worm movement: increased worm movement
Sj.5HTR
  EC50: 3 ± 0.3 nM
[6]
  reduction of egg laying ex vivo: 82.4 ± 2.2 % reduction
Immature S. mansoni
  effect on movement of juvenile worms: stimulated movement of juvenile worms
Sm.5HTRL [4]
  EC50: 76 ± 1 nM
Sm.5HTRL [4]; HEK293, read-out: elevation in luminescence values (fold increase)
  fold induction at 1 µM: 70 to 110
Sh.5HTR
  EC50: 3.6 ± 0.3 nM

## Nc1nc(Cl)nc2c1ncn2C1OC(CO)C(O)C1O (stereo not drawn) [ST088476]
Sm.5HTRL [1]; agonist hit validation
  (+) Sm.5HTRL fold change: 23.2211 fold change
[2]; [7]
  (-)Sm.5HTRL fold change: 3.8 fold change

## Nc1ncnc2c1ncn2[C@@H]1O[C@H](CO)[C@@H](O)[C@H]1O [ST009496]
Sm.5HTRL [1]; agonist hit validation
  (+) Sm.5HTRL fold change: 24.237 fold change
[2]; [7]
  (-)Sm.5HTRL fold change: 3.9 fold change

## CN1C[C@H](C(=O)N[C@]2(C)O[C@@]3(O)[C@@H]4CCCN4C(=O)[C@H](Cc4ccccc4)N3C2=O)C[C@@H]2c3cccc4[nH]cc(c34)C[C@H]21 [dihydroergotamine, Dihydroergotamine, reference compound]
Sm.5HTRL [1]
  type of activity at schistosome 5-HTRs: full agonists

## COc1ccc(C2CC(=O)c3c(O)cc(OC4OC(CO)C(O)C(O)C4OC4OC(C)C(O)C(O)C4O)cc3O2)cc1O (stereo not drawn) [compound 31048]
Sm.5HTRL [1]; [8]
  Sm.5HTRL antagonism (% of control 5-HT response): 1.138 % of control 5-HT response
Sm.5HTRL [4]
  fold induction at 10 µM: 1.32

## Br.Oc1ccc(CC2NCCc3cc(O)c(O)cc32)cc1O (stereo not drawn) [ST056944]
Sm.5HTRL [1]; hek293 cells
  (+) Sm.5HTRL fold change: 28.3016 fold change
[2]
  (-)Sm.5HTRL fold change: 56.3 fold change

## COC(=O)C1=COC(C)C2CN3CCc4c([nH]c5cc(OC)c(OC)cc45)C3CC12.O=C(O)CC(O)(CC(=O)O)C(=O)O (stereo not drawn) [compound 72715]
Sm.5HTRL [1]; agonist hit validation
  (+) Sm.5HTRL fold change: 54.6116 fold change
[2]; [7]
  (-)Sm.5HTRL fold change: 0.9445 fold change

## Nc1ncnc2c1ncn2C1OC(CO)C(O)C1O (stereo not drawn) [compound 7652]
Sm.5HTRL [1]; agonist hit validation
  (+) Sm.5HTRL fold change: 49.711 fold change
[2]; [7]
  (-)Sm.5HTRL fold change: 7.802 fold change

## COc1cc(C)c2c(c1C=O)Oc1c(c(C)c(O)c3c1C(O)OC3=O)OC2=O (stereo not drawn) [compound 87511]
Sm.5HTRL [1]; [8]
  Sm.5HTRL antagonism (% of control 5-HT response): 0.8125 % of control 5-HT response
Sm.5HTRL [4]
  fold induction at 10 µM: 0.635

## CCN1C[C@]2(COC)[C@H](O)C[C@H](OC)[C@]34C1[C@H]([C@H](OC)[C@H]23)[C@]1(OC(C)=O)[C@H]2[C@@H](OC(=O)c3ccccc3)[C@](O)(C[C@H]24)[C@@H](OC)[C@@H]1O [compound 56464]
Sm.5HTRL [1]
  Sm.5HTRL agonism (fold change luminescence): 1.997 fold change luminescence
  Sm.5HTRL antagonism (% of control 5-HT response): 1.042 % of control 5-HT response

## O=c1ccc2nc3ccc(O)cc3oc-2c1 [compound 12097]
Sm.5HTRL [1]; [8]
  Sm.5HTRL antagonism (% of control 5-HT response): 0.7238 % of control 5-HT response
Sm.5HTRL [4]
  fold induction at 10 µM: 0.635

## C=C[C@@]1(C)CC(=O)[C@@]2(O)[C@](C)(O1)[C@@H](OC(C)=O)[C@@H](O)C1C(C)(C)CC[C@H](O)[C@@]12C (stereo partly drawn) [ST095786]
Sm.5HTRL [1]; agonist hit validation
  (+) Sm.5HTRL fold change: 95.4625 fold change
[2]; [7]
  (-)Sm.5HTRL fold change: 121.8 fold change

## CNCCc1c[nH]c2ccc(O)cc12.O=C(O)C(=O)O [ST055634]
Sm.5HTRL [1]; hek293 cells
  (+) Sm.5HTRL fold change: 165.214 fold change
[2]; [7]
  (-)Sm.5HTRL fold change: 1.3 fold change
